# Results taken from ChEMBL document CHEMBL3112480, “γ-Alkylidene-γ-lactones and isobutylpyrrol-2(5H)-ones analogues to rubrolides as inhibitors of biofilm formation by gram-positive and gram-negative bacteria” (Bioorg Med Chem Lett, 2014).
# Assays:
# [1] = tested on: Staphylococcus epidermidis; assay: Antibacterial activity against Staphylococcus epidermidis ATCC 35547 assessed as effect on planktonic growth at 2.73 ug/ml after 20 hrs relative to control; format: functional
# Streptococcus mutans [2] = assay: Antibacterial activity against Streptococcus mutans ATCC 25175 assessed as effect on planktonic growth at 5.5 ug/ml after 20 hrs relative to control; format: functional
# Pseudomonas aeruginosa [3] = assay: Antibacterial activity against Pseudomonas aeruginosa ATCC 27853 assessed as effect on planktonic growth at 21.9 ug/ml after 20 hrs relative to control; format: functional
# [4] = tested on: Staphylococcus epidermidis; assay: Antibacterial activity against Staphylococcus epidermidis ATCC 35547 assessed as effect on planktonic growth at 87.5 ug/ml after 20 hrs relative to control; format: functional
# Staphylococcus aureus [5] = assay: Antibacterial activity against Staphylococcus aureus ATCC 25923 assessed as effect on planktonic growth at 0.34 ug/ml after 20 hrs relative to control; format: functional
# Streptococcus mutans [6] = assay: Antibacterial activity against Streptococcus mutans ATCC 25175 assessed as effect on planktonic growth at 0.34 ug/ml after 20 hrs relative to control; format: functional
# Pseudomonas aeruginosa [7] = assay: Antibacterial activity against Pseudomonas aeruginosa ATCC 27853 assessed as effect on planktonic growth at 0.17 ug/ml after 20 hrs relative to control; format: functional
# Staphylococcus aureus [8] = assay: Antibacterial activity against Staphylococcus aureus ATCC 25923 assessed as effect on planktonic growth at 2.73 ug/ml after 20 hrs relative to control; format: functional
# Streptococcus mutans [9] = assay: Antibacterial activity against Streptococcus mutans ATCC 25175 assessed as effect on planktonic growth at 0.17 ug/ml after 20 hrs relative to control; format: functional
# Pseudomonas aeruginosa [10] = assay: Antibacterial activity against Pseudomonas aeruginosa ATCC 27853 assessed as effect on planktonic growth at 0.34 ug/ml after 20 hrs relative to control; format: functional
# [11] = tested on: Staphylococcus epidermidis; assay: Antibacterial activity against Staphylococcus epidermidis ATCC 35547 assessed as effect on planktonic growth at 0.17 ug/ml after 20 hrs relative to control; format: functional
# Streptococcus mutans [12] = assay: Antibacterial activity against Streptococcus mutans ATCC 25175 assessed as effect on planktonic growth at 87.5 ug/ml after 20 hrs relative to control; format: functional
# Pseudomonas aeruginosa [13] = assay: Antibacterial activity against Pseudomonas aeruginosa ATCC 27853 assessed as effect on planktonic growth at 5.5 ug/ml after 20 hrs relative to control; format: functional
# [14] = tested on: Staphylococcus epidermidis; assay: Antibacterial activity against Staphylococcus epidermidis ATCC 35547 assessed as effect on planktonic growth at 5.5 ug/ml after 20 hrs relative to control; format: functional
# Staphylococcus aureus [15] = assay: Antibacterial activity against Staphylococcus aureus ATCC 25923 assessed as effect on planktonic growth at 21.9 ug/ml after 20 hrs relative to control; format: functional
# Staphylococcus aureus [16] = assay: Antibacterial activity against Staphylococcus aureus ATCC 25923 assessed as inhibition of biofilm formation after 20 hrs by crystal-violet staining method; format: functional, organism-based; settings: ATCC 25923, 20 h
# Streptococcus mutans [17] = assay: Antibacterial activity against Streptococcus mutans ATCC 25175 assessed as inhibition of biofilm formation at 44 ug/ml after 20 hrs by crystal-violet staining method relative to control; format: functional; settings: ATCC 25175, 20 h
# [18] = tested on: Staphylococcus epidermidis; assay: Antibacterial activity against Staphylococcus epidermidis ATCC 35547 assessed as effect on planktonic growth at 0.68 ug/ml after 20 hrs relative to control; format: functional
# [19] = tested on: Staphylococcus epidermidis; assay: Antibacterial activity against Staphylococcus epidermidis ATCC 35547 assessed as effect on planktonic growth at 43.8 ug/ml after 20 hrs relative to control; format: functional
# Streptococcus mutans [20] = assay: Antibacterial activity against Streptococcus mutans ATCC 25175 assessed as effect on planktonic growth at 10.9 ug/ml after 20 hrs relative to control; format: functional
# Pseudomonas aeruginosa [21] = assay: Antibacterial activity against Pseudomonas aeruginosa ATCC 27853 assessed as effect on planktonic growth at 0.68 ug/ml after 20 hrs relative to control; format: functional
# Streptococcus mutans [22] = assay: Antibacterial activity against Streptococcus mutans ATCC 25175 assessed as effect on planktonic growth at 21.9 ug/ml after 20 hrs relative to control; format: functional
# Staphylococcus aureus [23] = assay: Antibacterial activity against Staphylococcus aureus ATCC 25923 assessed as effect on planktonic growth at 87.5 ug/ml after 20 hrs relative to control; format: functional
# Pseudomonas aeruginosa [24] = assay: Antibacterial activity against Pseudomonas aeruginosa ATCC 27853 assessed as effect on planktonic growth at 43.8 ug/ml after 20 hrs relative to control; format: functional
# Pseudomonas aeruginosa [25] = assay: Antibacterial activity against Pseudomonas aeruginosa ATCC 27853 assessed as inhibition of biofilm formation after 20 hrs by crystal-violet staining method; format: functional, organism-based; settings: for IC50: ATCC 27853, 20 h
# [26] = tested on: Staphylococcus epidermidis; assay: Antibacterial activity against Staphylococcus epidermidis ATCC 35547 assessed as effect on planktonic growth at 21.9 ug/ml after 20 hrs relative to control; format: functional
# Streptococcus mutans [27] = assay: Antibacterial activity against Streptococcus mutans ATCC 25175 assessed as effect on planktonic growth at 2.73 ug/ml after 20 hrs relative to control; format: functional
# Pseudomonas aeruginosa [28] = assay: Antibacterial activity against Pseudomonas aeruginosa ATCC 27853 assessed as effect on planktonic growth at 2.73 ug/ml after 20 hrs relative to control; format: functional
# Staphylococcus aureus [29] = assay: Antibacterial activity against Staphylococcus aureus ATCC 25923 assessed as effect on planktonic growth at 10.9 ug/ml after 20 hrs relative to control; format: functional
# Pseudomonas aeruginosa [30] = assay: Antibacterial activity against Pseudomonas aeruginosa ATCC 27853 assessed as effect on planktonic growth at 10.9 ug/ml after 20 hrs relative to control; format: functional
# Staphylococcus aureus [31] = assay: Antibacterial activity against Staphylococcus aureus ATCC 25923 assessed as effect on planktonic growth at 5.5 ug/ml after 20 hrs relative to control; format: functional
# Staphylococcus aureus [32] = assay: Antibacterial activity against Staphylococcus aureus ATCC 25923 assessed as effect on planktonic growth at 0.68 ug/ml after 20 hrs relative to control; format: functional
# Staphylococcus aureus [33] = assay: Antibacterial activity against Staphylococcus aureus ATCC 25923 assessed as effect on planktonic growth at 43.8 ug/ml after 20 hrs relative to control; format: functional
# Staphylococcus aureus [34] = assay: Antibacterial activity against Staphylococcus aureus ATCC 25923 assessed as effect on planktonic growth at 0.17 ug/ml after 20 hrs relative to control; format: functional
# Streptococcus mutans [35] = assay: Antibacterial activity against Streptococcus mutans ATCC 25175 assessed as inhibition of biofilm formation after 20 hrs by crystal-violet staining method; format: functional; settings: ATCC 25175, 20 h
# Pseudomonas aeruginosa [36] = assay: Antibacterial activity against Pseudomonas aeruginosa ATCC 27853 assessed as effect on planktonic growth at 1.37 ug/ml after 20 hrs relative to control; format: functional
# [37] = tested on: Staphylococcus epidermidis; assay: Antibacterial activity against Staphylococcus epidermidis ATCC 35547 assessed as effect on planktonic growth at 1.37 ug/ml after 20 hrs relative to control; format: functional
# [38] = tested on: Staphylococcus epidermidis; assay: Antibacterial activity against Staphylococcus epidermidis ATCC 35547 assessed as effect on planktonic growth at 10.9 ug/ml after 20 hrs relative to control; format: functional
# Pseudomonas aeruginosa [39] = assay: Antibacterial activity against Pseudomonas aeruginosa ATCC 27853 assessed as effect on planktonic growth at 87.5 ug/ml after 20 hrs relative to control; format: functional
# [40] = tested on: Staphylococcus epidermidis; assay: Antibacterial activity against Staphylococcus epidermidis ATCC 35547 assessed as effect on planktonic growth at 0.34 ug/ml after 20 hrs relative to control; format: functional
# Streptococcus mutans [41] = assay: Antibacterial activity against Streptococcus mutans ATCC 25175 assessed as effect on planktonic growth at 1.37 ug/ml after 20 hrs relative to control; format: functional
# Streptococcus mutans [42] = assay: Antibacterial activity against Streptococcus mutans ATCC 25175 assessed as effect on planktonic growth at 0.68 ug/ml after 20 hrs relative to control; format: functional
# Streptococcus mutans [43] = assay: Antibacterial activity against Streptococcus mutans ATCC 25175 assessed as effect on planktonic growth at 43.8 ug/ml after 20 hrs relative to control; format: functional
# Staphylococcus aureus [44] = assay: Antibacterial activity against Staphylococcus aureus ATCC 25923 assessed as effect on planktonic growth at 1.37 ug/ml after 20 hrs relative to control; format: functional
# [45] = tested on: Staphylococcus epidermidis; assay: Antibacterial activity against Staphylococcus epidermidis ATCC 35547 assessed as inhibition of biofilm formation after 20 hrs by crystal-violet staining method; format: functional, organism-based; settings: for IC50: ATCC 35547, 20 h
# Staphylococcus aureus [46] = assay: Induction of biofilm formation in Staphylococcus aureus ATCC 25923 at 44 ug/ml after 20 hrs by crystal-violet staining method relative to control; format: organism-based
structure (smiles),measurement,setting,value
COc1ccccc1C1=C(Br)C(=O)N(CC(C)C)/C1=C/c1ccc(C(F)(F)F)cc1,Activity,[1],-6.4%
same,Activity,Streptococcus mutans [2],-15.8%
same,Activity,Pseudomonas aeruginosa [3],9.1%
same,Activity,[4],-5.5%
same,Activity,Staphylococcus aureus [5],-1.6%
same,Activity,Streptococcus mutans [6],-5.4%
same,Activity,Pseudomonas aeruginosa [7],-2.3%
same,Activity,Staphylococcus aureus [8],-21.7%
same,Activity,Streptococcus mutans [9],7.9%
same,Activity,Pseudomonas aeruginosa [10],-5.2%
same,Activity,[11],-16.7%
same,Activity,Streptococcus mutans [12],-46.9%
same,Activity,Pseudomonas aeruginosa [13],-15.8%
same,Activity,[14],1%
same,Activity,Staphylococcus aureus [15],4.9%
same,IC50,Staphylococcus aureus [16],95.1 µM
same,inhibition at 44 µg/mL,Streptococcus mutans [17],88.8%
same,Activity,[18],-10.2%
same,Activity,[19],40.1%
same,Activity,Streptococcus mutans [20],-19.3%
same,Activity,Pseudomonas aeruginosa [21],-4%
same,Activity,Streptococcus mutans [22],-12%
same,Activity,Staphylococcus aureus [23],91%
same,Activity,Pseudomonas aeruginosa [24],34.8%
same,inhibition,Pseudomonas aeruginosa [25],Dose-dependent effect
same,IC50,Pseudomonas aeruginosa [25],25.2 µg/mL
same,Activity,[26],88.5%
same,Activity,Streptococcus mutans [27],-0.8%
same,Activity,Pseudomonas aeruginosa [28],-13.1%
same,Activity,Staphylococcus aureus [29],-3.8%
same,Activity,Pseudomonas aeruginosa [30],-4.1%
same,Activity,Staphylococcus aureus [31],-18.5%
same,Activity,Staphylococcus aureus [32],-5.2%
same,Activity,Staphylococcus aureus [33],59.8%
same,Activity,Staphylococcus aureus [34],0%
same,IC50,Streptococcus mutans [35],58.9 µM
same,Activity,Pseudomonas aeruginosa [36],-10.4%
same,Activity,[37],1.1%
same,Activity,[38],36.6%
same,Activity,Pseudomonas aeruginosa [39],30.6%
same,Activity,[40],-2.2%
same,Activity,Streptococcus mutans [41],10.6%
same,Activity,Streptococcus mutans [42],6%
same,Activity,Streptococcus mutans [43],-55.3%
same,Activity,Staphylococcus aureus [44],-14.9%
same,inhibition,[45],Dose-dependent effect
same,IC50,[45],12.2 µg/mL
COc1ccc(C)cc1C1=C(Br)C(=O)N(CC(C)C)/C1=C\c1ccccc1Cl,Activity,[1],-5.5%
same,Activity,Streptococcus mutans [2],8.9%
same,Activity,Pseudomonas aeruginosa [3],-13.3%
same,Activity,[4],65.8%
same,Activity,Staphylococcus aureus [5],-3.3%
same,Activity,Streptococcus mutans [6],-1.4%
same,Activity,Pseudomonas aeruginosa [7],-1.9%
same,Activity,Staphylococcus aureus [8],-6.6%
same,Activity,Streptococcus mutans [9],-4.6%
same,Activity,Pseudomonas aeruginosa [10],-5.5%
same,Activity,[11],4%
same,Activity,Streptococcus mutans [12],49.5%
same,Activity,Pseudomonas aeruginosa [13],-13.8%
same,Activity,[14],3.3%
same,Activity,Staphylococcus aureus [15],-6.3%
same,Activity,Staphylococcus aureus [46],3.6%
same,Activity,[18],3.4%
same,Activity,[19],46.4%
same,Activity,Streptococcus mutans [20],7.8%
same,Activity,Pseudomonas aeruginosa [21],-7.7%
same,Activity,Streptococcus mutans [22],14.6%
same,Activity,Staphylococcus aureus [23],33.8%
same,Activity,Pseudomonas aeruginosa [24],-11.1%
same,inhibition,Pseudomonas aeruginosa [25],Dose-dependent effect
same,IC50,Pseudomonas aeruginosa [25],5.7 µg/mL
same,Activity,[26],31.7%
same,Activity,Streptococcus mutans [27],3.9%
same,Activity,Pseudomonas aeruginosa [28],-6%
same,Activity,Staphylococcus aureus [29],-13.4%
same,Activity,Pseudomonas aeruginosa [30],-13.8%
same,Activity,Staphylococcus aureus [31],-12%
same,Activity,Staphylococcus aureus [32],-4.9%
same,Activity,Staphylococcus aureus [33],8.9%
same,Activity,Staphylococcus aureus [34],-4.2%
same,Activity,Pseudomonas aeruginosa [36],-10.6%
same,Activity,[37],-4.4%
same,Activity,[38],13.1%
same,Activity,Pseudomonas aeruginosa [39],0.8%
same,Activity,[40],17.8%
same,Activity,Streptococcus mutans [41],-0.4%
same,Activity,Streptococcus mutans [42],-2.1%
same,Activity,Streptococcus mutans [43],19.2%
same,Activity,Staphylococcus aureus [44],-13.4%
same,inhibition,[45],Dose-dependent effect
same,IC50,[45],> 87.5 µg/mL
